These results are taken from patent US20200255844A1, “MULTIPLEXED RECEPTOR-LIGAND INTERACTION SCREENS” (THE REGENTS OF THE UNIVERSITY OF CALIFORNIA, priority 2017, published 2020).

For one assay, the system named is MOR133-1. The experiment in a line: High-throughput multiplexed odorant screening (Smell-seq), barcode RNA-seq readout. Type of assay: cell-based, mouse. Conditions: OR MOR133-1; pair called as hit, FDR=1%. From the text: (§1) We subsequently screened 182 odorants at three concentrations in triplicate against the OR cell library, the equivalent of ˜85,000 individual luciferase assays including controls (FIG. 10A, Table 2). Each 96-well plate in the assay contained positive control odorants and solvent DMSO wells for normalization (FIG. 16). We used the EdgeR software package to determine differentially responsive ORs based on a negative binomial model of barcode counts. We found 114 OR-odorant interactions (out of 7,200 possible), 81 of which are novel, and 24 interactions with 15 orphan receptors (FIG. 10C, FIG. 17 and Supplementary Table 4) (FDR=1%; Benjamini-Hochberg correction). Overall 28 of 39 receptors were activated by at least one odorant, and 68 of 182 odorants activated at least one OR (Table 4). We chose 37 interactions of at least 1.2 fold induction to test individually with a previously developed transient OR assay that has several important differences (FIG. 18). Of the 28 interactions called as hits at an FDR of 1%, 21 of them replicated in this orthogonal system (FIG. 17). […] Conversely, we also detect 14 interactions that this previous study tested, but called negative.

Another assay concerns the target T1, MOR132-1 (Mus musculus, UniProt Q8VFM9).
T1 construct: protein trafficking tags (N); expressed in transfected cells; host or cells: HEK293T-derived cells (Mukku3a), PiggyBac transposon, Tet-On inducible
The description is as above. As to conditions: OR MOR132-1; pair called as hit, FDR=1%. The assay is classed as cell-based.
Excerpt: as §1

The test system of the next assay is MOR102-1. The description is as above. The assay is classed as cell-based, mouse. Conditions: OR MOR102-1; pair called as hit, FDR=1%.
Excerpt: as §1

The next assay deals with MOR120-1. The description is as above. Type of assay: cell-based, mouse. Conditions: OR MOR120-1; pair called as hit, FDR=1%.
Excerpt: as §1

For a further assay, the system named is MOR142-1. Described as above. Type of assay: cell-based, mouse. Conditions: OR MOR142-1; pair called as hit, FDR=1%.
Excerpt: as §1

Another assay has as its system MOR189-1. The assay is described as above. Type of assay: cell-based, mouse. As to conditions: OR MOR189-1; pair called as hit, FDR=1%.
Excerpt: as §1

Another assay deals with MOR208-1. The assay is described as above. The assay is classed as cell-based, mouse. Conditions: OR MOR208-1; pair called as hit, FDR=1%.
Excerpt: as §1

The next assay relates to MOR30-1. The description is as above. The assay is classed as cell-based, mouse. Conditions: OR MOR30-1; pair called as hit, FDR=1%.
Excerpt: as §1

The next assay relates to MOR158-1. The assay is described as above. As to conditions: OR MOR158-1; pair called as hit, FDR=1%. The assay is classed as cell-based, mouse.
Excerpt: as §1

Another assay relates to MOR170-1. Put plainly: High-throughput multiplexed odorant screening (Smell-seq), 96-well, barcode RNA-seq readout. The assay is classed as cell-based, mouse. Conditions: OR MOR170-1; pair called as hit, FDR=1%. The procedure: 10. High-Throughput Odorant Screening
The OR library cell line was thawed from a liquid nitrogen frozen stock into a T-225 flask (Corning) three days before seeding into a 96-well plate for screening. The library was seeded at 6,666 cells per well in 100 ul of DMEM. 24 hours later a working concentration of 1 ug/ml of doxycycline in DMEM was added to the wells. 24 hours after induction, the media was removed from each plate and replaced with 25 ul of odorant diluted in OptiMEM. Each odor was added at three different concentrations (10 uM, 100 uM, 1 mM) in triplicate with the same amount of final DMSO (1%). Each plate contained two control odorants at a three concentration (10 uM, 100 uM, 1 mM) in triplicate and three wells containing 1% DMSO dissolved in media. The library was incubated with odorants for three hours in a cell culture incubator with the lids removed.
After odor incubation, media was pipetted out of the plates and cells were lysed by adding 25 uL of ice-cold Cells-to-cDNA II Lysis Buffer (Thermo Fisher) and pipetting up and down to homogenize and lyse cells. The lysate was then heated to 75° C. for 15 minutes and flash frozen with liquid nitrogen and kept at −80 C until further processing. Then 0.5 uL DNase I (New England Biolabs) was added to lysate, and incubated at 37° C. for 15 minutes. To anneal the RT primer, 5 ul of lysate from each well was combined with 2.5 ul of 10 mM dNTPs (New England Biosciences), 1 ul of 2 uM gene specific RT primer (OL003), and 1.5 ul of H2O. The reaction was heated to 65° C. for 5 min and cooled back down to 0° C. After annealing, 1 ul of M-MuLV Reverse Transcriptase (Enzymatics), 1 ul of buffer, and 0.25 ul of RNase Inhibitor (Enzymatics) were added to each reaction. Reactions were incubated at 42° C. for 60 min and the RT enzyme was heat inactivated at 85° C. for 10 min.
For each batch, qPCR was performed on a few wells (OL005F and OL013) with SYBR FAST qPCR Mastermix to determine the number of cycles necessary for PCR based library preparation. The reaction and cycling conditions are optimized as follows: 95° C. for 3 minutes, 40 cycles of 95° C. for 3 seconds and 60° C. for 20 seconds. After qPCR, 5 ul of each RT reaction was combined with 0.4 ul of 10 uM primers containing sequencing adaptors (OL005F and OL013), 10 ul of NEB-Next Q5 Mastermix (New England Biosciences) and 4.2 ul H2O, the PCR was carried out according to the manufacturer's protocol. The forward primer contains the P7 adaptor sequence and an index identifying the well in the assay and the reverse primer contains the P5 adaptor sequence and an index identifying the plate in the assay. PCR products were pooled together by plate and purified with the DNA Clean and Concentrator Kit. Library concentrations were quantified using a Tape Station 2200 and a Qubit (Thermo Fisher). The libraries were sequenced with two index reads and a single end 75-bp read on a NextSeq 500 in high-output mode (Illumina).
11. Analysis of Next-Generation Sequencing Data
Samples were identified via indexing by their PCR indexes adapters unique for each well (5′ end) and unique for each plate (3′ end). The well barcodes followed the 7 bp indexing scheme in (Illumina Sequencing Library Preparation for Highly Multiplexed Target Capture and Sequencing Matthias Meyer, Martin Kircher, Cold Spring Harb Protoc; 2010; doi:10.1101/pdb.prot5448). The plate indexing scheme followed the Illumina indexing scheme. Sequencing data was demultiplexed and 15 bp barcode sequences were counted with only exact matches by custom python and bash scripts.
12. Statistical Methods for Calling Hits
Count data was then analyzed using the differential expression package EdgeR. To filter out ORs with low representation, we set a cutoff that an OR had to contain at least 0.5% of the reads from more than 399 of the 1954 test samples. This filtered out 3 of 42 ORs which were underrepresented in the cell library (MOR172-1, MOR176-1 and MOR181-1). […]

The subject of another assay is MOR203-1. Put plainly: High-throughput multiplexed odorant screening (Smell-seq), barcode RNA-seq readout. As to conditions: OR MOR203-1; pair called as hit, FDR=1%. The assay is classed as cell-based, mouse.
Excerpt: as §1

A further assay deals with T2, MOR180-1 (Mus musculus, UniProt Q8VGS3).
T2 construct: protein trafficking tags (N); expressed in transfected cells; host or cells: HEK293T-derived cells (Mukku3a), PiggyBac transposon, Tet-On inducible
T2 sequence (Q8VGS3 whole entry): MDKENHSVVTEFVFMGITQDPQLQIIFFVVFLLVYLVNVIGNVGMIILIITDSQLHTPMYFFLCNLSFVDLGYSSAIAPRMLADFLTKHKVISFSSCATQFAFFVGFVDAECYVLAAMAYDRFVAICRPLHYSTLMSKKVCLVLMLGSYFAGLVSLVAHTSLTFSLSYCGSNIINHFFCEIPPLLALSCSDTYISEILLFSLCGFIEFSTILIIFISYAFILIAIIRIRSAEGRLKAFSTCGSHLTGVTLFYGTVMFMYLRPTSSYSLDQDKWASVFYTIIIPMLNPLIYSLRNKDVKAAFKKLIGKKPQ
The assay is described as above. Type of assay: cell-based. As to conditions: OR MOR180-1; pair called as hit, FDR=1%.
Excerpt: as §1

In a further assay the test system is MOR 199-1. Described as above. Type of assay: cell-based, mouse. As to conditions: OR MOR 199-1; pair called as hit, FDR=1%.
Excerpt: as §1

For a further assay, the system named is Olfr62. The assay is described as above. Type of assay: cell-based, mouse. Conditions: OR Olfr62; pair called as hit, FDR=1%.
Excerpt: as §1

For a further assay, the system named is MOR112-1. The description is as above. The assay is classed as cell-based, mouse. As to conditions: OR MOR112-1; pair called as hit, FDR=1%.
Excerpt: as §1

The next assay concerns MOR131-1. The assay is described as above. As to conditions: OR MOR131-1; pair called as hit, FDR=1%. Type of assay: cell-based, mouse.
Excerpt: as §1

The test system of the next assay is MOR9-1. Described as above. The assay is classed as cell-based, mouse. Conditions: OR MOR9-1; pair called as hit, FDR=1%.
Excerpt: as §1

The test system of a further assay is MOR139-1. Described as above. Type of assay: cell-based, mouse. Conditions: OR MOR139-1; pair called as hit, FDR=1%.
Excerpt: as §1

T1 sequence (Q8VFM9 whole entry): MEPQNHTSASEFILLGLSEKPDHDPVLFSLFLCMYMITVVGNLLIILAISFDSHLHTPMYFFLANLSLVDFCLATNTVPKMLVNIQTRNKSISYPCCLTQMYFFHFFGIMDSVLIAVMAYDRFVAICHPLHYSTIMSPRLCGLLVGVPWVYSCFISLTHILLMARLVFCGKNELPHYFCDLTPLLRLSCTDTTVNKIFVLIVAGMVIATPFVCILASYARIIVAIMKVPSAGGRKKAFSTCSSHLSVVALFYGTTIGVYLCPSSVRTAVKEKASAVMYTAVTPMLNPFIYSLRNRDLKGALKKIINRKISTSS

For `CCCCCC(=O)CC` [3-Octanone], the “Minimum Activating Concentration” value in the assay on MOR133-1 came to 1000 µM.

Take `CC(=O)O[C@]1(C)CC[C@@]23C[C@@H]1C(C)(C)[C@@H]2CC[C@H]3C` [Cedryl acetate]: the “Minimum Activating Concentration” value at MOR132-1, in the assay on MOR102-1, with MOR120-1, in the assay with MOR142-1, in the assay on MOR189-1 and with MOR208-1 was 1000 µM in each case. Besides, in the assay with MOR30-1, the “Minimum Activating Concentration” value worked out at 1000 µM.

With `CC(=O)C1(C)CC2=C(CCCC2(C)C)CC1C` (stereo not drawn) [Iso E Super], the “Minimum Activating Concentration” value with MOR158-1 stood at 1000 µM.

As for `CC(=O)OCc1ccc2c(c1)OCO2` [Piperonyl acetate], the “Minimum Activating Concentration” value in the assay on MOR170-1 and with MOR203-1 was 1000 µM in each case.

In the case of `CCCCC/C(=C\c1ccccc1)C(OC)OC` [a-Amylcinnamaldehyde dimethyl acetal], on MOR180-1, the “Minimum Activating Concentration” value stood at 1000 µM.

In the case of `CCc1occc(=O)c1O` [ethyl maltol], the “Minimum Activating Concentration” value with MOR170-1 worked out at 1000 µM; with MOR 199-1 it was 100 µM; in the assay with Olfr62 it was 1000 µM.

Consider `CC1COCc2cc3c(cc21)C(C)(C)C(C)C3(C)C` (stereo not drawn) [galaxolide], for which the “Minimum Activating Concentration” value with MOR112-1 was 100 µM; in the assay with MOR131-1, 1000 µM; in the assay with MOR9-1, 1000 µM.

Turning to `CC(C=O)Cc1ccc2c(c1)OCO2` (stereo not drawn) [helional], the “Minimum Activating Concentration” value in the assay on MOR170-1, with MOR139-1 and with MOR203-1 was 1000 µM throughout.
